Tested on: T1, voltage T-type Ca2+ channel (α1H; Cav3.1)
T1 construct: gene CACNA1H; α1H cDNA in pcDNA3, expressed in HEK 293 cells; Cav3.1 would be α1G (CACNA1G)
Assay: whole-cell patch clamp
Assay type: cell-based, Homo sapiens
Conditions: HEK-293 cells stably expressing α1H; 5 mM CaCl2 external, pH 7.4; Vh -90 mV; positive control, data not shown

Structure (SMILES): CN1CCN(c2ncc(-c3cc(Cl)cc(Cl)c3Cl)c(N)n2)CC1 [Sipatrigine]
- IC50: ~30 µM
